# Laboratory results as given in patent publication US7943749B2, “Antimicrobial 2-deoxystreptamine compounds” (Isis Pharmaceuticals, Inc., priority 2004, dated 2011).
# Values joined by “and” are separate entries in the source; they are usually repeats but may differ in a detail not shown here. Equal values may be shown once.
# How the values were obtained:
# E. Coli = assay: MIC, E. Coli; type: cell-based; conditions: 24 h;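 also: minimum inhibitory concentration determined in duplicate in 96-well plates, compounds given in 4% aqueous DMSO, with ampicillin and tetracycline as positive controls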
# S. Aureus = assay: MIC, S. Aureus; type: cell-based; conditions: 24 h
# [1] = system: E. coli S30 bacterial extract (pBestLuc luciferase reporter); assay: Coupled bacterial transcription/translation assay; type: biochemical; conditions: read-out: Trans/trans IC50
# Experimental: The DNA template, pBestLuc™ (Promega), is a plasmid containing a reporter gene for firefly luciferase fused to a strong tac promoter and ribosome binding site. Messenger RNA from 1 μg pBestLuc is transcribed and translated in E. coli S30 bacterial extract in the presence or absence of test compound. Compounds are tested in a black 96 well microtiter plate with an assay volume of 35 μL. […] The transcription/translation reaction is incubated for 35 minutes at 37° C. followed by detection of functional luciferase with the addition of 30 μL LucLite™ (Packard). Light output is quantitated on a Packard TopCount.
# [2] = system: K. pneumoniae ATCC (10031); assay: MIC, K. pneumoniae ATCC 10031; type: cell-based; conditions: 24 h
# E. coli ATCC (25922) = assay: MIC, E. coli ATCC 25922; type: cell-based; conditions: 24 h
# P. aurginosa ATCC(25416) = assay: MIC, P. aurginosa ATCC 25416; type: cell-based; conditions: 24 h
# P. aurginosa ATCC(29248) = assay: MIC, P. aurginosa ATCC 29248; type: cell-based; conditions: 24 h
# P. vulgaris ATCC(8427) = conditions: 24 h
# Experimental: The MIC assays are carried out in 150 μL volume in duplicate in 96-well clear flat-bottom plates. The bacterial suspension from an overnight culture growth in appropriate medium is added to a solution of test compound in 4% DMSO in water. Final bacterial inoculum is approximately 10^5-10^6 CFU/well. […] Both ampicillin and tetracycline are used as antibiotic-positive controls in each screening assay for S. pyogenes, E. coli imp-, E. coli, S. aureus, E. faecalis, K. pneumoniae and P. vulgaris. Ciprofloxacin is used as an antibiotic positive control in each screening assay for P. aeruginosa.
# The following compounds were prepared using methods illustrated in the previous examples. The compounds were also examined in standard bacterial assays against E. Coli, S. Aureus, P. aurginosa, K. pneumoniae, P. vulgaris, and A. baumannii to determine activities. Each of the bacterial cultures that are available from ATCC (www.atcc.org) is identified by its ATCC number. A. baumannii is gentamicin sensitive Acinetobacter baumannii #2 from Walter Reed.
# [3] = system: gentamicin sensitive Acinetobacter baumannii #2 from Walter Reed; assay: MIC, A. baumannii WReed 2; type: cell-based; conditions: 24 h
# S. aureus ATCC(13709) = assay: MIC, S. aureus ATCC 13709; type: cell-based; conditions: 24 h
# [4] = target: 16S ribosomal subunit RNA target; assay: Mass spectrometry based binding assay (FTICR), 16S
# Experimental: In a typical experiment, 10 μL of an aqueous solution containing 100 mM ammonium acetate buffer, 2.5 or 5 μM of each RNA, and 33% isopropyl alcohol (to aid ion desolvation) was prepared with different concentrations of each ligand or ligand mixture. Samples were introduced into the electrospray ionization source (negative ionization mode) at 1 μL/min and ions were stored for 1 sec in an RF-only hexapole following desolvation. The abundances were integrated from the respective ions for free RNA and the ligand-RNA complex. The primary (1:1 RNA:ligand) and secondary (1:2 complex, if observed). […] The peak ratios were measured at each concentration, then a plot of complex/free RNA versus concentration of ligand added was fitted to a second (or higher) order binding polynomial to determine the KD.
# [5] = range between growth and complete inhibition
structure (smiles),measurement,setting,value
NCC1OC(OC2C(CO)OC(OC3C(O)C(N)CC(N)C3OC3OC(CO)C(O)C(O)C3N)C2OCCNC2CCCCC2)C(N)C(O)C1O (centres unmarked) [IBIS00560931],MIC E. Coli.,E. Coli,3 to 6 µM
same,MIC S. Aureus,S. Aureus,3 to 5 µM
NCCCNCCOC1C(OC2C(O)C(N)CC(N)C2OC2OC(CO)C(O)C(O)C2N)OC(CO)C1OC1OC(CN)C(O)C(O)C1N (centres unmarked) [IBIS00560175],IC50,[1],290 nM
same,MIC E. Coli.,E. Coli; [5],25 to 50 µM and 25 µM
same,MIC S. Aureus,S. Aureus; [5],3 to 6 µM and 3 µM
NCC1OC(OC2C(CO)OC(OC3C(O)C(N)CC(N)C3OC3OC(CO)C(O)C(O)C3N)C2OCCNCCC2CC3CCC2C3)C(N)C(O)C1O (centres unmarked) [IBIS00561951],MIC E. Coli.,E. Coli,>10 µM
same,MIC S. Aureus,S. Aureus,5.0 to 10.0 µM
NCC1OC(OC2C(CO)OC(OC3C(O)C(N)CC(N)C3OC3OC(CO)C(O)C(O)C3N)C2OCCNCc2ccccc2)C(N)C(O)C1O (centres unmarked) [IBIS00560974],MIC E. Coli.,E. Coli,3 to 6 µM
same,MIC S. Aureus,S. Aureus,3 to 5 µM
NCC1OC(OC2C(CO)OC(OC3C(O)C(N)CC(N)C3OC3OC(CO)C(O)C(O)C3N)C2OCCNC23CC4CC(CC(O)(C4)C2)C3)C(N)C(O)C1O (centres unmarked) [IBIS00561195],MIC E. Coli.,E. Coli,20 to 40 µM
same,MIC S. Aureus,S. Aureus,1 to 3 µM
NCC1OC(OC2C(CO)OC(OC3C(O)C(N)CC(N)C3OC3OC(CO)C(O)C(O)C3N)C2OCCNCc2ccnc(N)c2)C(N)C(O)C1O (centres unmarked) [IBIS00560965],MIC E. Coli.,E. Coli,6 to 12 µM
same,MIC S. Aureus,S. Aureus,0.6-1^ μM
NCC1OC(OC2C(CO)OC(OC3C(O)C(N)CC(N)C3OC3OC(CO)C(O)C(O)C3N)C2OCCNCCc2ccc(-c3ccccc3)cc2)C(N)C(O)C1O (centres unmarked) [IBIS00561193],MIC E. Coli.,E. Coli,20 to 40 µM
same,MIC S. Aureus,S. Aureus,5 to 10 µM
NCC1OC(OC2C(CO)OC(OC3C(O)C(N)CC(N)C3OC3OC(CO)C(O)C(O)C3N)C2OCCNCCc2cc(C(F)(F)F)cc(C(F)(F)F)c2)C(N)C(O)C1O (centres unmarked) [IBIS00561954],MIC E. Coli.,E. Coli,>10 µM
same,MIC S. Aureus,S. Aureus,2.5 to 5.0 µM
NCC1OC(OC2C(CO)OC(OC3C(O)C(N)CC(N)C3OC3OC(CO)C(O)C(O)C3N)C2OCCN(CCCc2ccccc2)CCc2ccccc2)C(N)C(O)C1O (centres unmarked) [IBIS00561969],MIC K. pneumoniae ATCC (10031),[2],2.5 to 5.0 µM
same,MIC E. coli ATCC (25922),E. coli ATCC (25922),10 to 20 µM
same,MIC P. aurginosa ATCC(25416),P. aurginosa ATCC(25416),10 to 20 µM
same,MIC P. aurginosa ATCC(29248),P. aurginosa ATCC(29248),>40 µM
same,MIC P. vulgaris ATCC(8427),P. vulgaris ATCC(8427),10 to 20 µM
same,MIC A. baumannii WReed 2,[3],10 to 20 µM
same,MIC S. aureus ATCC(13709),S. aureus ATCC(13709),0.6 to 1.2 µM
COc1cc(CCNCCOC2C(OC3C(O)C(N)CC(N)C3OC3OC(CO)C(O)C(O)C3N)OC(CO)C2OC2OC(CN)C(O)C(O)C2N)cc(OC)c1 (centres unmarked) [IBIS00561192],MIC E. Coli.,E. Coli,10 to 20 µM
same,MIC S. Aureus,S. Aureus,5 to 10 µM
NCC1OC(OC2C(CO)OC(OC3C(O)C(N)CC(N)C3OC3OC(CO)C(O)C(O)C3N)C2OCCNCC2CCCNC2)C(N)C(O)C1O (centres unmarked) [IBIS00560726],Kd,[4],250 nM and 130 nM
CN(C)CCOC1C(OC2C(O)C(N)CC(N)C2OC2OC(CO)C(O)C(O)C2N)OC(CO)C1OC1OC(CN)C(O)C(O)C1N (centres unmarked) [IBIS00560174],IC50,[1],210 nM
same,MIC E. Coli.,E. Coli; [5],12 to 52 µM
same,MIC S. Aureus,S. Aureus; [5],6 to 12 µM
same,Kd,[4],930 nM
NCC1OC(OC2C(CO)OC(OC3C(O)C(N)CC(N)C3OC3OC(CO)C(O)C(O)C3N)C2OCCNc2cccnc2)C(N)C(O)C1O (centres unmarked) [IBIS00560798],IC50,[1],80 nM
same,MIC E. Coli.,E. Coli; [5],3 to 6 µM
same,MIC S. Aureus,S. Aureus; [5],0.6-1^ μM
same,Kd,[4],550 nM
